“Also recorded” adds a separate entry of the source. Like-named read-outs stand apart in the source and are kept apart here.
Experiments:
[1] = system: passive cutaneous anaphylaxis reaction; test: Passive Cutaneous Anaphylaxis Test (PCA), topical antiallergic activity; format: in vivo, Male Sprague Dawley rats; details: for inhibition in vivo at 0.02 % / inhibition in vivo at 0.2 % / inhibition in vivo at 2 % / inhibition in vivo at 0.01 % / inhibition in vivo at 1 %: Rattus norvegicus, read-out: Percent Inhibition
Excerpt: Male Sprague Dawley rats (175-200 grams) were sensitized intradermally with 0.1 cc of high dilution of antiovalbumin antiserum (IgE-containing) that was predetermined to cause a well circumscribed and reproducible skin wheal response. Two intradermal sensitization sites were applied to the backs of each rat. […] One hour later the rats were challenged intravenously with a solution containing 0.5% ovalbumin and 0.5% Evans blue dye in a saline vehicle. Twenty minutes later the rats were killed by carbon dioxide asphyxiation, the dorsal skin reflected and the blue wheal measured as the mean of the two largest perpendiculars. This mean was used to calculate the area of the wheal according to [A=π(d/2)^2 ]. The wheal area under the drug-treated site was used as an index of local topical activity and the distant site served as an index of systemic activity.

[2] = system: K^+ -stimulated Ca^++ -uptake in rabbit aortic slices; test: Calcium Uptake in Rabbit Aorta (K+-stimulated Ca++ uptake in aortic slices); format: cell-based, New Zealand white rabbits; details: for inhibition of K+-stimulated Ca++ uptake (in words): rabbit aortic slices, FIG. 2; for effects on calcium mechanisms / calcium movement assays (in words): summary over aortic uptake and contraction assays
Procedure: Female, New Zealand white rabbits (1-2 kg) were sacrificed by cervical dislocation, and the thoracic […] was immediately removed, cleaned, and sliced into rings (5-20 mg). The tissue was preincubated at 37° C. for 60 minutes. […] After allowing radioactive calcium uptake to occur for 45 minutes, the reaction was stopped by transferring the tissue to a wash-out solution containing 80 mM LaCl3 for 30 minutes. The tissue was removed, blotted of excess moisture, and weighed. The aortic slices were then placed into scintillation vials containing 1 ml Protosol tissue solubilizer and incubated overnight at 55° C. After coding and acidifying, the samples were counted to determine ^45 Ca uptake. Sample results were normalized to counts per minutes per mg, wet tissue weight.

Δ5 -lipoxygenase = biological target: T1, Δ5 -lipoxygenase (Rattus norvegicus, UniProt P12527); test: Lipoxygenase activity in Rat Basophilic Leukemia Cells (RBL-1), 5-HETE formation; format: cell-based; details: for effect on lipoxygenase activity (in words): rat basophilic cells
T1 construct: Crude cell extract was used as the source of the Δ5 -lipoxygenase enzyme; endogenous in cells; host or cells: RBL-1 (rat basophilic leukemia) cells, whole or sonicated crude extract
T1 sequence (P12527 1-673): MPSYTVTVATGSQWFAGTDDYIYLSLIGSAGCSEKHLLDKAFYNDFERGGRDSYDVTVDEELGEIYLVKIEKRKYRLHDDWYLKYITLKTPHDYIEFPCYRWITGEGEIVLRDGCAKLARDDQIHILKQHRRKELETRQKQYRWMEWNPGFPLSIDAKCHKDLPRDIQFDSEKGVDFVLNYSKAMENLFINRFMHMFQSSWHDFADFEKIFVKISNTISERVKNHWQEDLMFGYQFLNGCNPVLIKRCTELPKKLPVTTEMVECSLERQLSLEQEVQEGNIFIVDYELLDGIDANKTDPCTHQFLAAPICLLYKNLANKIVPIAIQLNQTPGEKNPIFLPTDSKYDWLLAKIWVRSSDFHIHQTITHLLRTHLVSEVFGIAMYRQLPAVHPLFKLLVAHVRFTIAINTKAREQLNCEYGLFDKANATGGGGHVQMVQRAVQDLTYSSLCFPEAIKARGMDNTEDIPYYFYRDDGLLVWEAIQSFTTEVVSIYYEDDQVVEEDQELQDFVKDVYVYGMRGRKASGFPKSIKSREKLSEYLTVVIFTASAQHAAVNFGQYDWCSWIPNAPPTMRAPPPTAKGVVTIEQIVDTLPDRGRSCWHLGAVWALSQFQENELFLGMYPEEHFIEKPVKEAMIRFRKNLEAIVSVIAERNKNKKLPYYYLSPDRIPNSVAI
Procedure: Rat basophilic leukemia cells (RBL-1) are basophilic members of the leukocyte series and constitute a circulating form of the mast cell, i.e. they share many or all of the biochemical features of the mast cell involved in mediator release. As leukemic cells they are readily available as they can be grown in culture. RBL-1 cells were grown in minimal essential medium (MEM) containing 10% fetal calf serum, 5% calf serum, 2 mM glutamine, and 50 μg/ml gentamicin. The cells were harvested for each assay, washed once with 50 mM potassium phosphate, 1 mM EDTA, and 0.1% gelatin, pH=7.0. The cells were then resuspended to a concentration of 1.85×10^7 cells/ml. For broken cell assays (i.e. to measure direct effects on the enzyme), these cells were sonicated in an ultrasonic sonifier for 3 minutes while maintaining the sample temperature at 4° C. Crude cell extract was used as the source of the Δ5 -lipoxygenase enzyme. […] The reaction was stopped by the addition of 1 M citric acid to give a final pH of approximately 3.5. The reaction mixture was extracted with diethylether, brought to dryness under a stream of nitrogen and the residues were resuspended and spotted on Gilman ITLC silica gel-impregnated glass filter strips. Synthetic hydroxyeicosotetraenoic acid (5-HETE) standard was spotted with each sample and the sheets were developed in isoctane:2-butanone:glacial acetic acid (100:9:1). After development, the sheets were dried, and the 5-HETE standard was visualized in a tank of iodine crystals. Areas corresponding to 5-HETE were quantitated by liquid scintillation counting. The remainder of each lane was also counted in four sections. Activity was determined as the percent conversion of the total counts in each lane to the area corresponding to 5-HETE. Percent inhibition was calculated from the change in percent conversion in the presence of drug. Blanks determined in the presence of boiled cells were subtracted from all values.

[3] = system: K^+ -Stimulated Ca^++ -mediated Contractions of Rabbit Aortic Strips; test: Potassium-Induced Calcium-Mediated Contraction of Aortic Strips; format: cell-based, New Zealand strain rabbits; details: for IC50: Oryctolagus cuniculus, read-out: IC50, K+-stimulated Ca++-mediated contractions
Excerpt: New Zealand strain rabbits (1-1.5 kg) were sacrificed by cervical dislocation and the thoracic cavity was opened to expose a section of the aorta. A section of the aorta from the diaphragm to the aortic arch was isolated, dissected out and immediately placed in chilled Krebs bicarbonate buffer solution. A 2 inch section of the aorta was supported on a glass rod in a petri dish with chilled Krebs bicarbonate solution and cleaned of excess tissue. The aorta was then cut into helical strips (3×30 mm) and suspended from a FT03 isometric force displacement transducer coupled to a Beckman recorder. The tissue bath was filled with Krebs bicarbonate buffer maintained at 37° C. and bubbled with 95% 02 and 5% CO2. The helical strips were allowed to equilibrate for 1.5 to 2 hours with a 4 gram resting load. The tissues were dosed in a cumulative manner with 10 mM, 15 mM, 20 mM, 30 mM, 40 mM, 80 mM and 120 mM KCl. The tissues were washed several times after the KCl treatment and were allowed to equilibrate for 1-1.5 hours until a baseline equivalent to 4 grams tension was achieved. A second dose-response to KCl was repeated and again washed and allowed to equilibrate. […] Changes in grams tension were recorded.

[4] = RBL-1, 1 μM, read-out: % Inhibition of lipoxygenase activity
[5] = RBL-1, 100 μM, read-out: % Inhibition of lipoxygenase activity
[6] = RBL-1, read-out: % Inhibition of lipoxygenase activity

SMILES	inhibition in vivo at 0.02 % ([1]; Topical Dose 0.02%) [%]	inhibition in vivo at 0.2 % ([1]; Topical Dose 0.20%) [%]	inhibition in vivo at 2 % ([1]; Topical Dose 2.00%) [%]	Significance (P < .05) of inhibition ([1]; Topical Dose 0.02%)	Significance (P < .05) of inhibition ([1]; Topical Dose 0.20%)	Significance (P < .05) of inhibition ([1]; Topical Dose 2.00%)	activity in the PCA test (in words) ([1]; topical)	effect on lipoxygenase activity (in words) (Δ5 -lipoxygenase)	Significance (P < .05) of inhibition ([1]; Topical Dose 1.00%)	inhibition of vascular contraction (in words) ([3]; rabbit aortic strips)	inhibition at 100 µM (Δ5 -lipoxygenase; [6]) [%]	other results
CN(C)CCC(c1ccc(Cl)cc1)c1ccccn1 (stereo not drawn) [Chlorpheniramine, chlorpheniramine]	20	16.3	16.7	No	No	No	totally inactive	totally inactive; also recorded: None of the compounds produced significant inhibition				Inhibition of 45Ca++ Uptake Aortic Slices (summary grade) ([2]; Table 4 grade, symbols not defined): +; inhibition of K+-stimulated Ca++ uptake (in words) [2]: totally inactive; effects on calcium mechanisms / calcium movement assays (in words) [2]: marginal effects; inhibition at 1 µM (Δ5 -lipoxygenase; [4]): 0%; inhibition at 100 µM (Δ5 -lipoxygenase; [5]): 1%
CN1CCC(=C2c3ccccc3C=Cc3ccccc32)CC1 [Cyproheptadine, cyproheptadine]							potent topical antiallergic effect	statistically equipotent effects on lipoxygenase activity from either whole or broken cells	Yes	potent inhibitors	78	inhibition in vivo at 0.01 % ([1]; topical): 11.7%; inhibition in vivo at 1 % ([1]; topical): 98.1%; Significance (P < .05) of inhibition ([1]; Topical Dose 0.01%): No; Percent Inhibition ([1]; Topical Dose 0.10%): 25.0%; Significance (P < .05) of inhibition ([1]; Topical Dose 0.10%): Yes; topical ED50, inhibition in the PCA test ([1]; topical 0.1 ml, 1 hour before challenge, vehicle water/alcohol/N-decylmethylsulfoxide, 95% F.L. 0.07, 0.25): 0.13%; inhibition of cutaneous allergic reaction (in words) ([1]; topical, 1% dose): virtually complete inhibition; IC50 ([2]; Oryctolagus cuniculus, read-out: IC50, K+-stimulated Ca++ uptake): ~1000 nM
CN(C)CCOC(c1ccccc1)c1ccccc1 [Diphenhydramine, diphenhydramine]	0	8.5	43.9	No	No	No	inactive					
Fc1ccc(C(c2ccc(F)cc2)N2CCN(C/C=C/c3ccccc3)CC2)cc1 [Flunarizine, flunarizine]	16.3	13	17.2	No	No	No	inactive					
OCCOCCN1CCN(C(c2ccccc2)c2ccc(Cl)cc2)CC1 (stereo not drawn) [Hydroxyzine, hydroxyzine]							totally inactive	totally inactive; also recorded: None of the compounds produced significant inhibition	No	orders of magnitude less potent		inhibition in vivo at 0.01 % ([1]; Topical Dose 0.01%): 0%; inhibition in vivo at 1 % ([1]; Topical Dose 1.00%): 0%; Significance (P < .05) of inhibition ([1]; Topical Dose 0.01%): No; Percent Inhibition ([1]; Topical Dose 0.10%): 9.7%; Significance (P < .05) of inhibition ([1]; Topical Dose 0.10%): No; inhibition of K+-stimulated Ca++ uptake (in words) [2]: did not produce 50% inhibition even at a concentration of an order of magnitude greater than the IC50 for cyproheptadine; effects on calcium mechanisms / calcium movement assays (in words) [2]: marginal effects; IC50 ([3]; rabbit aortic strips): 50 µM; inhibition at 1 µM (Δ5 -lipoxygenase; [4]): 0%; inhibition at 100 µM (Δ5 -lipoxygenase; [5]): 15%
CC[C@@H](CO)NC(=O)[C@@H]1C=C2c3cccc4c3c(cn4C)C[C@H]2N(C)C1 [Methysergide, methysergide]								None of the compounds produced significant inhibition			30	inhibition at 1 µM (Δ5 -lipoxygenase; [6]): 1%
CN(C)CCOc1ccccc1Cc1ccccc1 [Phenyltoloxamine, phenyltoloxamine]	2.6	14.3	25.9	No	No	No	inactive					
COc1ccc(CCN(C)CCCC(C#N)(c2ccc(OC)c(OC)c2)C(C)C)cc1OC (stereo not drawn) [Verapamil, verapamil]							totally inactive	slight activity; also recorded: None of the compounds produced significant inhibition with the exception of the very high dose (1×10^-4 M) of verapamil	No	potent inhibitors	51	inhibition in vivo at 1 % ([1]; topical): 0%; IC50 [3]: 0.55 µM; inhibition at 1 µM (Δ5 -lipoxygenase; [6]): 0%

From patent US4444780A, “Method for treating atopic dermatitis” (priority 1982, dated 1984)
